Assay results published in patent US6350885B1, “Tricyclic heteroaromatics and their derivatives as inhibitors of matrix metalloproteinases” (Warner-Lambert Company, priority 1998, dated 2002).

Key:
[1] = molecular target: T1, MMP-13CD (collagenase-3 catalytic domain) (Homo sapiens, UniProt P45452); assay: MMP inhibition, thiopeptolide substrate assay; format: biochemical; conditions: thiopeptolide substrate Ac-Pro-Leu-Gly-thioester-Leu-Leu-Gly-OEt; catalytic domain expressed in Escherichia coli from a synthetic gene
T1 construct: MMP-13CD (collagenase-3 catalytic domain); made in house; host or cells: Escherichia coli
Method: (§1) Experiments were carried out with the full-length and catalytic domains of the proteinases. […] IC50 values were determined using a thiopeptolide substrate, Ac-Pro-Leu-Gly-thioester-Leu-Leu-Gly-OEt (Ye Q.-Z., Johnson L. L., Hupe D. J., and Baragi V., “Purification and Characterization of the Human Stromelysin Catalytic Domain Expressed in Escherichia coli,” Biochemistry, 1992;31:11231-11235; Ye Q.-Z., Johnson L. L., Yu A. E., and Hupe D., “Reconstructed 19 kDa catalytic domain of gelatinase A is an active proteinase,” Biochemistry, 1995;34:4702-4708.) MMP-13CD was expressed from a synthetic gene and purified from Escherichia coli cell culture according to a previously described method (Ye Q.-Z., Johnson L. L., and Baragi V., “Gene synthesis and expression in E. coli for PUMP, a human matrix metalloproteinase,” Biochemical and Biophysical Research Communications, 1992; 186:143-149).

[2] = molecular target: T2, MMP-14CD (membrane-type MMP-1) (Homo sapiens, UniProt P50281); assay: MMP inhibition, thiopeptolide substrate assay; format: biochemical; conditions: thiopeptolide substrate Ac-Pro-Leu-Gly-thioester-Leu-Leu-Gly-OEt; catalytic domain
T2 construct: Experiments were carried out with the full-length and catalytic domains of the proteinases
Method: as §1

[3] = molecular target: MMP-2CD (gelatinase A catalytic domain) (Homo sapiens, UniProt P08253); assay: MMP inhibition, thiopeptolide substrate assay; format: biochemical; conditions: thiopeptolide substrate Ac-Pro-Leu-Gly-thioester-Leu-Leu-Gly-OEt
Method: as §1

[4] = molecular target: T3, MMP-2FL (gelatinase A full length enzyme) (Homo sapiens, UniProt P08253); assay: MMP inhibition, thiopeptolide substrate assay; format: biochemical; conditions: thiopeptolide substrate Ac-Pro-Leu-Gly-thioester-Leu-Leu-Gly-OEt
T3 construct: MMP-2FL (gelatinase A full length enzyme)
T3 sequence (P08253 110-660): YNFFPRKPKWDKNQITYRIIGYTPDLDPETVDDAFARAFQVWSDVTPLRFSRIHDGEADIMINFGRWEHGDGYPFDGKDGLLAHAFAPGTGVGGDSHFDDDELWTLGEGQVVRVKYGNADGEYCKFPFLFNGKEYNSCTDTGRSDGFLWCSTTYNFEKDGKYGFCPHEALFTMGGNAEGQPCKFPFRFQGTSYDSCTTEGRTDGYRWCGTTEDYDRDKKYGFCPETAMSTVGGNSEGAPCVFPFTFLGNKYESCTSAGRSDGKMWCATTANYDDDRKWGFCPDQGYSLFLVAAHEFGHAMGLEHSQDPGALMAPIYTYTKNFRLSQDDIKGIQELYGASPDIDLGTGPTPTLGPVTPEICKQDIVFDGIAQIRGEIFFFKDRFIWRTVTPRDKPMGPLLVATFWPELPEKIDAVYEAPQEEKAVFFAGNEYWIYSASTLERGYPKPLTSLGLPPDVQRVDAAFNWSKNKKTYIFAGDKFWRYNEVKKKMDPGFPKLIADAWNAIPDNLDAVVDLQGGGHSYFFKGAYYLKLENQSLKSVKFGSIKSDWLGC
Method: as §1

[5] = molecular target: T4, MMP-3CD (stromelysin-1 catalytic domain) (Homo sapiens, UniProt P08254); assay: MMP inhibition, thiopeptolide substrate assay; format: biochemical; conditions: thiopeptolide substrate Ac-Pro-Leu-Gly-thioester-Leu-Leu-Gly-OEt
T4 construct: MMP-3CD (stromelysin-1 catalytic domain)
Method: as §1

[6] = molecular target: T5, MMP-9-FL (gelatinase B full length enzyme) (Homo sapiens, UniProt P14780); assay: MMP inhibition, thiopeptolide substrate assay; format: biochemical; conditions: thiopeptolide substrate Ac-Pro-Leu-Gly-thioester-Leu-Leu-Gly-OEt
T5 construct: MMP-9-FL (gelatinase B full length enzyme)
Method: as §1

[7] = molecular target: T6, MMP-1FL (collagenase-1 full length enzyme) (Homo sapiens, UniProt P03956); assay: MMP inhibition, thiopeptolide substrate assay; format: biochemical; conditions: thiopeptolide substrate Ac-Pro-Leu-Gly-thioester-Leu-Leu-Gly-OEt
T6 construct: MMP-1FL (collagenase-1 full length enzyme)
T6 sequence (P03956 100-469): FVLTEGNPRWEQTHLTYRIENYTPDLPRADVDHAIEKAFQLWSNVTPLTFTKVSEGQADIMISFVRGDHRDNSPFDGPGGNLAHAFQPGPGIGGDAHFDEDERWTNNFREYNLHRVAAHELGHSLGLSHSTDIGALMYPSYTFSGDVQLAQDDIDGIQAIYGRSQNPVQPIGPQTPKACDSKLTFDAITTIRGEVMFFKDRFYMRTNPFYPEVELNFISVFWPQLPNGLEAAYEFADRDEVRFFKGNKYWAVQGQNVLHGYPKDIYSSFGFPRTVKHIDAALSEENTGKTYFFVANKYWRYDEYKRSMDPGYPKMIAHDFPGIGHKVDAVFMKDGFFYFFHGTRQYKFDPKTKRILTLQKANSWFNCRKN
Method: as §1

[8] = molecular target: T7, MMP-7FL (matrilysin full length enzyme) (Homo sapiens, UniProt P09237); assay: MMP inhibition, thiopeptolide substrate assay; format: biochemical; conditions: thiopeptolide substrate Ac-Pro-Leu-Gly-thioester-Leu-Leu-Gly-OEt
T7 construct: MMP-7FL (matrilysin full length enzyme)
T7 sequence (P09237 95-267): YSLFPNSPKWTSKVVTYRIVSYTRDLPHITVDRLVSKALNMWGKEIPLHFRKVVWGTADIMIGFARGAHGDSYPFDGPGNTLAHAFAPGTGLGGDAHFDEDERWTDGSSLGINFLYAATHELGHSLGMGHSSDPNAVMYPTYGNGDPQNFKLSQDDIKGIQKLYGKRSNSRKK
Method: as §1

MMP-2CD (gelatinase A catalytic domain), sequence (P08253 with tags, fused parts or gaps DEL222-396): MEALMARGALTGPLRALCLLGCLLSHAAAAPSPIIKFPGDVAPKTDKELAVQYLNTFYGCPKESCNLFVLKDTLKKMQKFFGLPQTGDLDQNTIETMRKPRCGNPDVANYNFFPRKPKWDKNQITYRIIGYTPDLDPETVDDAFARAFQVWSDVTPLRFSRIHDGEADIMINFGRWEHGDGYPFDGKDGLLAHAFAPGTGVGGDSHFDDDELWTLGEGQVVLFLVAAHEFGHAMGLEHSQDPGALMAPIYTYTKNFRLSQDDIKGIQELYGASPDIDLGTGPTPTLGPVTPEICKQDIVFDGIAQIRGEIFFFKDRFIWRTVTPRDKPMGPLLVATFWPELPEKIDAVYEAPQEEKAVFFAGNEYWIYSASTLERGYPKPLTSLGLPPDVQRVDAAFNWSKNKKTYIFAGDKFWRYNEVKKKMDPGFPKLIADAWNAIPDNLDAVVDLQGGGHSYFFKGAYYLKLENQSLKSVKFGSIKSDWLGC
T4 sequence (P08254 100-272 limits assumed): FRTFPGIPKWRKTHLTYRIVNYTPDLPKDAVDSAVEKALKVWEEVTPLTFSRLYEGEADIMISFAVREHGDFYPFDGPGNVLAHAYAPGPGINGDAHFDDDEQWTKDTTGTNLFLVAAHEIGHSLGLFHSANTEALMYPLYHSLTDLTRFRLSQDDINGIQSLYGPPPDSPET
T5 sequence (P14780 94-707): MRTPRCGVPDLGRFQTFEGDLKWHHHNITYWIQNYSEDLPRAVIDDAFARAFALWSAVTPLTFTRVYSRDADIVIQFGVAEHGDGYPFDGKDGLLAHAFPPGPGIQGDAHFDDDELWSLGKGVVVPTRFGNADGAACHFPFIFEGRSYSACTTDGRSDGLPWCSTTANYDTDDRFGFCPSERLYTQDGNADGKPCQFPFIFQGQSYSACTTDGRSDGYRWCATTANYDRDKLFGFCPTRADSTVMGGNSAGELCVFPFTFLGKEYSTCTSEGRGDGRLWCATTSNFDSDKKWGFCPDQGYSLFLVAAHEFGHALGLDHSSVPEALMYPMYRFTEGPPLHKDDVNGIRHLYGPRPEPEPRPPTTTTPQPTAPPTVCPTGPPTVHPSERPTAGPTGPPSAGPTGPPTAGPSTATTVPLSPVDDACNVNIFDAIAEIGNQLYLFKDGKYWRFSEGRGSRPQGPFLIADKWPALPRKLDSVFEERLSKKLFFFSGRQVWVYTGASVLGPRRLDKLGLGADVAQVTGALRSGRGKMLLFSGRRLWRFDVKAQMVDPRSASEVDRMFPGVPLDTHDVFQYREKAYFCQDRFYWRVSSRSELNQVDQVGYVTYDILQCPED

IC50 [1] [µM] | IC50 [2] [µM] | IC50 [3] [µM] | IC50 [4] [µM] | IC50 [5] [µM] | IC50 [6] [µM] | melting point [°C] | IC50 [7] [µM] | IC50 [8] [µM] | SMILES
1.21 | 0.24 | 0.0183 | 0.0595 | 0.114 | 32 | 164 |  |  | O=C(O)CCC(=NO)c1ccc2c3c(oc2c1)CCCC3 [Example 1, 4-Hydroxyimino4-(6,7,8,9-tetrahydro-dibenzofuran-3-yl)-butyric acid]
9.7 | 0.82 | 0.096 | 0.445 | 0.13 |  |  | 67 | 84 | O=C(CC(CCCc1ccccc1)C(=O)O)c1ccc2c3c(oc2c1)CCCC3 (stereo not shown) [Example 2, 2-[2-Oxo-2-(6,7,8,9-tetrahydro-dibenzofuran-3-yl)-ethyl]-5-phenyl-pentanoic acid]
1.42 | 2 | 0.0585 | 0.945 | 0.315 | 14 |  | 31 | 86 | CN1C(=O)N(CC(CC(=O)c2ccc3c4c(oc3c2)CCCC4)C(=O)O)C(=O)C1(C)C (stereo not shown) [Example 3, 4-Oxo-4-(6,7,8,9-tetrahydro-dibenzofuran-3-yl)-2-(3,4,4-trimethyl-2,5-dioxo-imidazolidin-1-ylmethyl)-butyric acid]
